Experimental findings from patent US10328148B2, “Protein drug formulations and packages” (Purdue Research Foundation, priority 2010, dated 2019) are described below.

One data set deals with human IgG. As to the kind of experiment: Screening of peptides immobilized on POROS-Aldehyde resin for binding of IgG. The settings on record: for Affinity for IgG: immobilized peptides from proteolytic digests; for Selectivity of IgG binding: immobilized peptide, IgG from human plasma. From the text:
Identifying Peptide Epitopes with Affinity for IgG. Peptide epitopes with high affinity for IgG may be derived readily from combinatorial libraries and proteolytic digests of protein mixtures. Proteolytic digests of Protein G were immobilized on POROS-Aldehyde resin by Schiff base coupling at their N-termini and the peptides screened for their ability to bind IgG from human plasma. […] In all, four peptides showing high affinity for IgG were isolated from protein G digests by this method. Similar peptides with high affinity for human IgG were also isolated and characterized from cytochrome c ([…]) (SEQ ID NO: 6) and mouse anti-human polyclonal IgG digests ([…]) (SEQ ID NO: 7) using this method. […] Without being bound by theory, it is believed herein that because ethylene glycol assists elution, some hydrophobic effects may also be involved.

The test system of another data set is IgG. In words: HP-SEC of IgG with free Protein A or Protein G: complex formation and agitation-induced aggregation. The format is physicochemical. The note with it: IgG:Protein A or G ratio 1:4, RT 2 h. Here is the method:
Effect of proteins A and G on aggregation of IgG. High performance size exclusion chromatography (HP-SEC) is used to verify that IgG binds with Protein A or Protein G completely. 50 µL aliquots are injected to a Tosoh TSK G 13000 SWXL Gel 3000 column ([…]×7.8 mm) and separated at a flow rate of 0.5 mL/min. The mobile phase contains 50 mM potassium phosphate and 100 mM K2SO4 at pH 7.1. The relative percentage of IgG monomer and dimer are calculated in triplicate as a percentage of the total chromatographic peak area at 280 nm. Fresh IgG is incubated with free Protein A or free Protein G, respectively, at IgG:Protein A or G ratio of 1:4 at RT for 2 h before being subjected to agitation. […] Effect of agitation of protein A and protein G complexes of IgG. The prior Example 1 is repeated, subjecting the IgG+Protein A or IgG+Protein G to agitation on a shaker at room temperature for 44 h.
In general terms: Size exclusion chromatography separates by hydrodynamic size, large species first.

Take “CAQCHTVEK (listed as Staphylococcus aureus) [peptide isolated from cytochrome c digest]”: the “Affinity for IgG” value with human IgG was “high affinity”.
Same read-out and setting: the value for “GAQGHVVEK (listed as Staphylococcus aureus) [peptide isolated from mouse anti-human polyclonal IgG digests]” was “high affinity”.
As for “Protein A: free Protein A, immunoglobulin-binding protein used as polyamino acid ligand”, the “Complex formation with IgG by HP-SEC” value in the data set with IgG was “formation of IgG-Protein A and IgG-Protein G complexes”.
As for “TVTEKPEV (listed as Staphylococcus aureus) [peptide from proteolytic digest of Protein G]”, in the data set with human IgG (by HPLC methods), the Binding constant for human IgG is approximately 1e+06 M⁻¹. In the data set with human IgG, the “Selectivity of IgG binding” value is listed as “comparable to Protein A”.
As to “TVTEKVIDASELTPAVT (listed as Staphylococcus aureus) [peptide from proteolytic digest of Protein G]”, the “Selectivity of IgG binding” value with human IgG is “comparable to Protein A”.
